From US10604487B2, “Pyridinol derivative or pharmaceutically acceptable salt thereof, and pharmaceutical composition containing same as active ingredient” (Research Cooperation Foundation of Yeungnam University, priority 2016, dated 2020) come the findings set out here.

Where two headings read alike, the source gives them in different places. Some results are limits rather than exact numbers.

The test system of data set [1] is TNF-α-induced adhesion of monocytes to intestinal epithelial cells. Briefly: Inhibitory activity against TNF-α-induced adhesion of monocytes (U937) to intestinal epithelial cells (HT-29). The data set is classed as cell-based, human. The settings on record: Homo sapiens. The procedure: HT-29 human colorectal cancer-derived epithelial cells and U937 human-derived monocytic cells were cultured in an RPMI 1640 medium containing 10% FBS and 1% penicillin/streptomycin (PS) at 37° C. under a condition of 5% CO2, and when the cells were grown to 80% or more in a culture flask, they were subcultured in a ratio of 1:3 to be used in this test. The HT-29 cells were cultured in a 24-well plate at a concentration of 2×10^5 cells/cm2, and then the medium only containing 1% FBS and 1% PS was pretreated with a test drug for 1 hour. Afterward, BCECF-loaded U937 cells by being treated with 10 μg/mL of BCECF-AM at 37° C. for 30 minutes and 10 ng/mL of TNF-α reacted with the HT-29 cells previously treated with the test drug at 37° C. for 3 hours. After the reaction, the medium was removed, and then the cells were washed with PBS twice to remove U937 cells that were not adhered. In a subsequent step, for cell lysis, 0.1% Triton X-100 (0.1 M Tris) was treated to allow a reaction at room temperature for 30 minutes, and then fluorescence was measured using a Fluostar optima microplate reader (BMG LABTECH, Germany) to quantify the cells (Carvalho et al., 1996; Thapa et al., 2008).

A short description of data set [2]: Cytotoxicity test (MTT), U937. The data set is classed as cell-based. The note with it: human, U937, 48 h; for viability at 48 h, 0.01 µM / viability at 48 h, 0.1 µM / viability at 48 h, 1 µM / viability at 48 h, 10 µM / viability at 48 h, 100 µM: U937 cells (monocytic blood cancer-derived cell line), read-out: Cell viability (% of control); for IC50 at 48 h: U937 cells. As for the experimental part: (§1) The human colorectal cancer cell line HT-29 and the monocytic blood cancer-derived cell line U937 were cultured in a RPMI 1640 medium containing 10% FBS and 1% penicillin/streptomycin (PS) at 37° C. under a condition of 5% CO2, and when the cells used herein were grown to 80% or more, they were subcultured at a ratio of 1:3.
(§2) Each type of cells were cultured in a 96 well plate at a concentration of 1×10^5 cells/cm2, treated with a test compound by concentration in a medium only containing 1% FBS and 1% PS at 37° C. under a condition of 5% CO2 for 48 hours and reacted with 5 mg/mL of a 3-[4,5-dimethylthiazol-2-yl]-2,5-diphenyltetrazolium bromide (MTT) reagent for 4 hours, and then the medium was completely removed, the cells were treated with DMSO, formazan crystals were dissolved for 30 minutes, and then absorbance was measured at 540 nm.

Data set [3] in a line: Cytotoxicity test (MTT), HT-29. The note with it: human, HT-29, 48 h; for viability at 48 h, 0.01 µM / viability at 48 h, 0.1 µM / viability at 48 h, 1 µM / viability at 48 h, 10 µM / viability at 48 h, 100 µM: HT-29 cells (colorectal cancer cell line), read-out: Cell viability (% of control); for IC50 at 48 h: HT-29 cells, read-out: IC50 (μM), cytotoxicity. The data set is classed as cell-based. As for the experimental part: as §1, §2

The mark [4] stands for this setting: 1 μM test drug, HT-29/U937 adhesion, 10 ng/mL TNF-α, read-out: Inhibitory activity (%).

Take `Cc1nc(NC(=O)Nc2ccc(Br)cc2)c(C)c(C)c1O` [Compound 16-8, 1-(4-Bromophenyl)-3-(5-hydroxy-3,4,6-trimethylpyridin-2-yl)urea]: the inhibition at 1 µM in data set [1] (setting [4]) came out at 17.2%.

With `Cc1nc(NC(=S)Nc2ccc(Cl)c(Cl)c2)c(C)c(C)c1O[Si](c1ccccc1)(c1ccccc1)C(C)(C)C` [Compound 17-8c, 1-(5-((tert-butyldiphenylsilyl)oxy)-3,4,6-trimethylpyridin-2-yl)-3-(3,4-dichlorophenyl)thiourea], the inhibition at 1 µM in data set [1] (setting [4]) was found to be 18.8%.

Consider `Cc1nc(NC(=O)NC(=O)c2ccccc2)c(C)c(C)c1O` [Compound 16-16, N-((5-hydroxy-3,4,6-trimethylpyridin-2-yl)carbamoyl)benzamide], for which, in data set [1] (setting [4]), the inhibition at 1 µM amounted to 34.2%.

As to `COc1c(C)nc(NC(=S)Nc2ccc(Cl)c(Cl)c2)c(C)c1C` [Compound 17-8b, 1-(3,4-dichlorophenyl)-3-(5-methoxy-3,4,6-trimethylpyridin-2-yl)thiourea], in data set [1] (setting [4]), the inhibition at 1 µM amounted to 39.5%.

In the case of `Cc1nc(NC(=O)Nc2ccc(F)cc2)c(C)c(C)c1O` [Compound 16-7, 1-(4-Fluorophenyl)-3-(5-hydroxy-3,4,6-trimethylpyridin-2-yl)urea], the inhibition at 1 µM in data set [1] (setting [4]) came to 14.6%.

As for `COc1c(C)nc(NC(=S)Nc2cccc(C(F)(F)F)c2)c(C)c1C` [Compound 17-9b, 1-(5-Methoxy-3,4,6-trimethylpyridin-2-yl)-3-(3-(trifluoromethyl)phenyl)thiourea], the inhibition at 1 µM in data set [1] (setting [4]) was 39%.

As to `Nc1ccc(O)c(C(=O)O)c1` [Compound 5-ASA, 5-aminosalicylic acid, reference compound], the inhibition at 1 µM in data set [1] (setting [4]) is 3.8%; in data set [1] (1 μM, Table 8, read-out: 1 μM concentration inhibitory activity), 3.8%. Also, the IC50 in data set [1] (HT-29/U937 adhesion, TNF-α-induced, read-out: IC50 (adhesion inhibition)) was 18100 µM.

In the case of `COc1cccc2c1C(=O)c1c(O)c3c(c(O)c1C2=O)C[C@@](O)(C(=O)CO)C[C@@H]3O[C@H]1C[C@H](N)[C@H](O)[C@H](C)O1` [Doxorubicin, reference compound], in data set [2], the viability at 48 h, 0.01 µM was 93.6 ± 1.8%; the viability at 48 h, 0.1 µM was found to be 91.4 ± 3.3%; the viability at 48 h, 1 µM turned out to be 42.2 ± 1.3%; the viability at 48 h, 10 µM was determined as 38.3 ± 0.6%. Moreover, in data set [2], the viability at 48 h, 100 µM was found to be 33.2 ± 1.3% and half-maximal inhibition (IC50 at 48 h) was put at 0.6 µM. For the same compound, in data set [3], the viability at 48 h, 0.01 µM is 69.9 ± 1.1%; the viability at 48 h, 0.1 µM worked out at 66.9 ± 3.3%; the viability at 48 h, 1 µM came out at 58.2 ± 6.4%; the viability at 48 h, 10 µM was 53.2 ± 5.1%. In data set [3], the viability at 48 h, 100 µM was found to be 35.7 ± 2% and the 50% inhibitory concentration (IC50) at 48 h was determined as 12.9 µM.

As to `Cc1nc(NC(=S)Nc2ccc(Br)cc2)c(C)c(C)c1O` [Compound 18-7, 1-(4-bromophenyl)-3-(5-hydroxy-3,4,6-trimethylpyridin-2-yl)thiourea], the inhibition at 1 µM in data set [1] (setting [4]) worked out at 27.8%.

As to `COc1ccc(NC(=S)Nc2nc(C)c(O[Si](c3ccccc3)(c3ccccc3)C(C)(C)C)c(C)c2C)cc1` [Compound 17-12c, 1-(5-((tert-Butyldiphenylsilyl)oxy)-3,4,6-trimethylpyridin-2-yl)-3-(4-methoxyphenyl)thiourea], in data set [1] (setting [4]), the inhibition at 1 µM was determined as 16%.

Regarding `Cc1nc(OCCCc2ccccc2)c(C)c(C)c1O` [Compound 28-6, 2,4,5-Trimethyl-6-(3-phenylpropoxy)pyridin-3-ol], the inhibition at 1 µM in data set [1] (setting [4]) is ≥ 50%.

As to `Cc1ccc(NC(=S)Nc2nc(C)c(O)c(C)c2C)cc1` [Compound 18-5, 1-(5-hydroxy-3,4,6-trimethylpyridin-2-yl)-3-(p-tolyl)thiourea], the inhibition at 1 µM in data set [1] (setting [4]) is 19.2%.

Regarding `O=c1[nH]cc(F)c(=O)[nH]1` [5-Fluorouracil, reference compound], in data set [2], the viability at 48 h, 0.01 µM stood at 93 ± 2.7%; the viability at 48 h, 0.1 µM amounted to 89.8 ± 2.7%; the viability at 48 h, 1 µM amounted to 75.7 ± 0.6%; the viability at 48 h, 10 µM amounted to 71.3 ± 1.7%. Also, in data set [2], the viability at 48 h, 100 µM turned out to be 59.7 ± 0.2% and the IC50 at 48 h is > 100 µM. Besides, in data set [3], the viability at 48 h, 0.01 µM came to 85.5 ± 3.9%; the viability at 48 h, 0.1 µM stood at 77.6 ± 4.6%; the viability at 48 h, 1 µM worked out at 61.9 ± 4.2%; the viability at 48 h, 10 µM came out at 48.3 ± 2%. Further, in data set [3], the viability at 48 h, 100 µM is 36 ± 2.5% and the IC50 at 48 h is 7.6 µM.

As usually defined, the IC50 is the concentration that inhibits the measured activity by half. One may read the viability as a per cent measure of how many cells are alive, often set against a control.
